Assay: Safety and tolerability, adverse events (Example 1)
Type: in vivo, human
Procedure: Safety and tolerability of Compound (a) was evaluated throughout the study, by recording the adverse events (AE) and their grade, as reported by the participants. An AE is any untoward medical occurrence in a subject administered the pharmaceutical formulation comprising Compound (a). […] An AE can therefore be any unfavorable and unintended sign (including an abnormal finding), symptom, or disease temporally associated with the use of the pharmaceutical formulation comprising Compound (a), whether or not related to the administration of the pharmaceutical formulation comprising Compound (a) (definition per International Conference on Harmonisation [ICH].) This includes any occurrence that is new in onset or aggravated in severity or frequency from the baseline condition, or abnormal results of diagnostic procedures, including laboratory test abnormalities. Grade refers to the severity of the AE, according to the below guideline: • Grade 1 Mild: transient or mild discomfort (<48 hours); no medical intervention/therapy required. • Grade 2 Moderate: mild to moderate limitation in activity; some assistance may be needed; no or minimal medical intervention/therapy required. • Grade 3 Severe: marked limitation in activity; some assistance usually required; medical intervention/therapy required; hospitalizations possible. • Grade 4 Potentially Life-threatening: Extreme limitation in activity; significant assistance required; significant medical intervention/therapy required; hospitalization or hospice care probable. All reported AEs with onset during the treatment phase and AEs that have worsened since baseline (ie, treatment-emergent AEs (TEAEs)) were included in the analysis.

[1] = Panel 1 (400 mg fasted: Treatment A oral solution and Treatment B SF1b)
[2] = Panels 1 and 2 (400 mg fasted; oral solution, SF1b, SF2b)

COc1cc(NC(C(=O)c2c[nH]c3ccc(OC(F)(F)F)cc23)c2ccc(Cl)cc2OC)cc(S(C)(=O)=O)c1 (stereo not shown) [Compound (a)]
Related adverse events, Grade 1 [1]: two Grade 1 AEs of throat irritation and dermatitis on one subject, and throat irritation and dermaturia in another subject
Related adverse events, Grade 2 [1]: one Grade 2 AE of headache and dermatitis
Related adverse events, Grade 1 (Panel 2 (400 mg fasted: Treatment A oral solution and Treatment C SF2b)): two Grade 1 AEs of headache and dermatitis each in one subject
Grade 1 Treatment Emergent Events, overall [2]: 11
Grade 2 Treatment Emergent Events, overall [2]: 7
Grade 3 Treatment Emergent Events, overall [2]: One
Grade 4 Treatment Emergent Events, overall [2]: No

Source: US20250281457A1, “TREATMENT OR PREVENTION OF DENGUE VIRAL INFECTION” (Janssen Pharmaceuticals, Inc., priority 2022, published 2025)
